Source: ChEMBL document CHEMBL4334431, “Gramicidin S-inspired antimicrobial cyclodextrin to disrupt gram-negative and gram-positive bacterial membranes” (Medchemcomm, 2019)
In brackets after ≈: the same amount, converted by molar mass. Activity calls are given as the source filed them. The rule behind the calls is not given here.

Experiments:
Staphylococcus aureus [1] = experiment: Induction of membrane permeabilization in Staphylococcus aureus FDA 209P assessed as decrease in cell viability; type: functional, organism-based
Staphylococcus aureus [2] = experiment: Antibacterial activity against Staphylococcus aureus FDA 209P assessed as bacterial growth inhibition after 20 hrs by liquid microdilution method; type: functional
Bacillus subtilis = experiment: Antibacterial activity against Bacillus subtilis 168 assessed as bacterial growth inhibition after 20 hrs by liquid microdilution method; type: functional; settings: Bacillus subtilis, 168, 20 h
Escherichia coli [3] = experiment: Antibacterial activity against Escherichia coli K12 W3110 assessed as bacterial growth inhibition after 20 hrs by liquid microdilution method; type: functional; settings: K-12 substr. W3110, 20 h
Salmonella typhimurium = experiment: Antibacterial activity against Salmonella typhimurium LT2 assessed as bacterial growth inhibition after 20 hrs by liquid microdilution method; type: functional, Salmonella enterica subsp. enterica serovar Typhimurium; settings: Salmonella enterica, LT2, 20 h
Pseudomonas aeruginosa [4] = experiment: Antibacterial activity against Pseudomonas aeruginosa PAO1 assessed as bacterial growth inhibition after 20 hrs by liquid microdilution method; type: functional; settings: PAO1, 20 h
Staphylococcus aureus [5] = experiment: Induction of membrane permeabilization in Staphylococcus aureus FDA 209P assessed as increase in potassium efflux; type: functional, organism-based
Escherichia coli [6] = experiment: Induction of membrane permeabilization in Escherichia coli K12 W3110 assessed as increase in potassium efflux; type: functional, organism-based
[7] = Haemolytic activity in rabbit RBCs at 50 uM relative to control; type: ADME, cell-based, Oryctolagus cuniculus, Erythrocyte; settings: rabbit red blood cells (erythrocytes), read-out: Activity
[8] = Partition coefficient, log P of compound; type: physicochemical; settings: octanol/water
Escherichia coli [9] = experiment: Antimicrobial activity against ESBL-producing Escherichia coli assessed as bacterial growth inhibition after 20 hrs by liquid microdilution method; type: functional
Escherichia coli [10] = experiment: Antimicrobial activity against carbapenem-resistant Escherichia coli assessed as bacterial growth inhibition after 20 hrs by liquid microdilution method; type: functional
Pseudomonas aeruginosa [11] = experiment: Antibacterial activity against carbapenem-reistant Pseudomonas aeruginosa PAO1 assessed as bacterial growth inhibition after 20 hrs by liquid microdilution method; type: functional; settings: PAO1, 20 h
Escherichia coli [12] = experiment: Induction of membrane permeabilization in Escherichia coli K12 W3110 assessed as decrease in cell viability; type: functional, organism-based
Staphylococcus aureus [13] = experiment: Antibacterial activity against Staphylococcus aureus FDA 209P at sub-MIC treated over 2 serial passages by resistant development assay; type: functional
Staphylococcus aureus [14] = experiment: Antibacterial activity against Staphylococcus aureus FDA 209P at sub-MIC treated over 4 serial passages by resistant development assay; type: functional
Escherichia coli [15] = experiment: Antimicrobial activity against […] at sub-MIC treated by resistant development assay; type: functional; settings: K-12 substr. W3110

SMILES	MIC (Staphylococcus aureus [2]) [µM]	MIC (Bacillus subtilis) [µM]	MIC (Escherichia coli [3]) [µM]	MIC (Salmonella typhimurium) [µM]	MIC (Pseudomonas aeruginosa [4]) [µM]	logP [8]	Activity (Staphylococcus aureus [1])	Activity (Staphylococcus aureus [5])	Activity (Escherichia coli [6])	hemolysis at 50 µM [7] [%]	MIC (Escherichia coli [9]) [µM]	MIC (Escherichia coli [10]) [µM]	MIC (Pseudomonas aeruginosa [11]) [µM]	Activity (Escherichia coli [12])	MIC (Staphylococcus aureus [13]) [µM]	MIC (Staphylococcus aureus [14]) [µM]	MIC (Escherichia coli [15]) [µM]
CCC(=O)O[C@@H]1[C@@H](OC(=O)CC)[C@H]2O[C@H]3[C@H](OC(=O)CC)[C@@H](OC(=O)CC)[C@@H](O[C@H]4[C@H](OC(=O)CC)[C@@H](OC(=O)CC)[C@@H](O[C@H]5[C@H](OC(=O)CC)[C@@H](OC(=O)CC)[C@@H](O[C@H]6[C@H](OC(=O)CC)[C@@H](OC(=O)CC)[C@@H](O[C@H]7[C@H](OC(=O)CC)[C@@H](OC(=O)CC)[C@@H](O[C@H]8[C@H](OC(=O)CC)[C@@H](OC(=O)CC)[C@@H](O[C@H]9[C@H](OC(=O)CC)[C@@H](OC(=O)CC)[C@@H](O[C@@H]1[C@@H](Cn1cc(CN)nn1)O2)O[C@@H]9Cn1cc(CN)nn1)O[C@@H]8Cn1cc(CN)nn1)O[C@@H]7Cn1cc(CN)nn1)O[C@@H]6Cn1cc(CN)nn1)O[C@@H]5Cn1cc(CN)nn1)O[C@@H]4Cn1cc(CN)nn1)O[C@@H]3Cn1cc(CN)nn1	9 (≈ 25.5 µg/mL)	2 (≈ 5.67 µg/mL)	4 (≈ 11.3 µg/mL)	9 (≈ 25.5 µg/mL)	4 (≈ 11.3 µg/mL)	-0.89	Active	Active	Active	17	4 (≈ 11.3 µg/mL)	9 (≈ 25.5 µg/mL)	9 (≈ 25.5 µg/mL)	Active	–	–	–
C[C@@H]1O[C@@H]1P(=O)(O)O [FOSFOMYCIN]	–	–	–	–	–	–	–	–	–	–	–	–	–	–	14 (≈ 1.93 µg/mL)	> 927	58 to 927 (≈ 8.01 to 128 µg/mL)
CCCCCCCCCC(=O)N[C@@H](Cc1c[nH]c2ccccc12)C(=O)N[C@H](CC(N)=O)C(=O)N[C@@H](CC(=O)O)C(=O)N[C@@H]1C(=O)NCC(=O)N[C@@H](CCCN)C(=O)N[C@@H](CC(=O)O)C(=O)N[C@H](C)C(=O)N[C@@H](CC(=O)O)C(=O)NCC(=O)N[C@H](CO)C(=O)N[C@@H]([C@H](C)CC(=O)O)C(=O)N[C@@H](CC(=O)c2ccccc2N)C(=O)O[C@@H]1C	3 (≈ 4.86 µg/mL)	–	–	–	–	–	–	–	–	–	–	–	–	–	–	–	–

Continued, in another order:

MIC (Staphylococcus aureus [2]) [µM]	MIC (Bacillus subtilis) [µM]	MIC (Escherichia coli [3]) [µM]	MIC (Salmonella typhimurium) [µM]	MIC (Pseudomonas aeruginosa [4]) [µM]	logP [8]	SMILES	Activity (Staphylococcus aureus [1])	Activity (Staphylococcus aureus [5])	Activity (Escherichia coli [6])	hemolysis at 50 µM [7] [%]	MIC (Escherichia coli [9]) [µM]	MIC (Escherichia coli [10]) [µM]	MIC (Pseudomonas aeruginosa [11]) [µM]	Activity (Escherichia coli [12])	MIC (Staphylococcus aureus [13]) [µM]	MIC (Staphylococcus aureus [14]) [µM]	MIC (Escherichia coli [15]) [µM]
> 31	> 31	> 31	> 43	> 43	0.6	CC(C)CC(=O)O[C@@H]1[C@@H](OC(=O)CC(C)C)[C@H]2O[C@H]3[C@H](OC(=O)CC(C)C)[C@@H](OC(=O)CC(C)C)[C@@H](O[C@H]4[C@H](OC(=O)CC(C)C)[C@@H](OC(=O)CC(C)C)[C@@H](O[C@H]5[C@H](OC(=O)CC(C)C)[C@@H](OC(=O)CC(C)C)[C@@H](O[C@H]6[C@H](OC(=O)CC(C)C)[C@@H](OC(=O)CC(C)C)[C@@H](O[C@H]7[C@H](OC(=O)CC(C)C)[C@@H](OC(=O)CC(C)C)[C@@H](O[C@H]8[C@H](OC(=O)CC(C)C)[C@@H](OC(=O)CC(C)C)[C@@H](O[C@H]9[C@H](OC(=O)CC(C)C)[C@@H](OC(=O)CC(C)C)[C@@H](O[C@@H]1[C@@H](Cn1cc(CN)nn1)O2)O[C@@H]9Cn1cc(CN)nn1)O[C@@H]8Cn1cc(CN)nn1)O[C@@H]7Cn1cc(CN)nn1)O[C@@H]6Cn1cc(CN)nn1)O[C@@H]5Cn1cc(CN)nn1)O[C@@H]4Cn1cc(CN)nn1)O[C@@H]3Cn1cc(CN)nn1	–	–	–	87	–	–	–	–	–	–	–
> 32	> 32	> 32	> 31	31 (≈ 94.8 µg/mL)	0.24	CC(C)C(=O)O[C@@H]1[C@@H](OC(=O)C(C)C)[C@H]2O[C@H]3[C@H](OC(=O)C(C)C)[C@@H](OC(=O)C(C)C)[C@@H](O[C@H]4[C@H](OC(=O)C(C)C)[C@@H](OC(=O)C(C)C)[C@@H](O[C@H]5[C@H](OC(=O)C(C)C)[C@@H](OC(=O)C(C)C)[C@@H](O[C@H]6[C@H](OC(=O)C(C)C)[C@@H](OC(=O)C(C)C)[C@@H](O[C@H]7[C@H](OC(=O)C(C)C)[C@@H](OC(=O)C(C)C)[C@@H](O[C@H]8[C@H](OC(=O)C(C)C)[C@@H](OC(=O)C(C)C)[C@@H](O[C@H]9[C@H](OC(=O)C(C)C)[C@@H](OC(=O)C(C)C)[C@@H](O[C@@H]1[C@@H](Cn1cc(CN)nn1)O2)O[C@@H]9Cn1cc(CN)nn1)O[C@@H]8Cn1cc(CN)nn1)O[C@@H]7Cn1cc(CN)nn1)O[C@@H]6Cn1cc(CN)nn1)O[C@@H]5Cn1cc(CN)nn1)O[C@@H]4Cn1cc(CN)nn1)O[C@@H]3Cn1cc(CN)nn1	–	–	–	101	–	–	–	–	–	–	–
> 32	> 32	> 32	> 32	> 32	-0.06	CCCC(=O)O[C@@H]1[C@@H](OC(=O)CCC)[C@H]2O[C@H]3[C@H](OC(=O)CCC)[C@@H](OC(=O)CCC)[C@@H](O[C@H]4[C@H](OC(=O)CCC)[C@@H](OC(=O)CCC)[C@@H](O[C@H]5[C@H](OC(=O)CCC)[C@@H](OC(=O)CCC)[C@@H](O[C@H]6[C@H](OC(=O)CCC)[C@@H](OC(=O)CCC)[C@@H](O[C@H]7[C@H](OC(=O)CCC)[C@@H](OC(=O)CCC)[C@@H](O[C@H]8[C@H](OC(=O)CCC)[C@@H](OC(=O)CCC)[C@@H](O[C@H]9[C@H](OC(=O)CCC)[C@@H](OC(=O)CCC)[C@@H](O[C@@H]1[C@@H](Cn1cc(CN)nn1)O2)O[C@@H]9Cn1cc(CN)nn1)O[C@@H]8Cn1cc(CN)nn1)O[C@@H]7Cn1cc(CN)nn1)O[C@@H]6Cn1cc(CN)nn1)O[C@@H]5Cn1cc(CN)nn1)O[C@@H]4Cn1cc(CN)nn1)O[C@@H]3Cn1cc(CN)nn1	Active	Active	Active	102	–	–	–	Active	–	–	–
